Reference: the NIST ThermoML archive (doi:10.1021/acs.jced.9b00327)

How the values were obtained:
[1] = 100 kPa, Liquid, Single path-length method
[2] = mn = molality of the nth substance listed, in mol/kg; conditions: 100 kPa, Liquid; for speed of sound: Single path-length method; for mass density: Vibrating tube method

O [water]
[1]
Conditions	speed of sound [m/s]
313.15 K	1528.9
318.15 K	1536.5

Cn1c(=O)c2c(ncn2C)n(C)c1=O [caffeine] + O
[2]
Conditions	mass density, m1 = 0.005 [kg/m3]	mass density, m1 = 0.01 [kg/m3]	mass density, m1 = 0.02 [kg/m3]	mass density, m1 = 0.04 [kg/m3]	mass density, m1 = 0.06 [kg/m3]	speed of sound, m1 = 0.005 [m/s]	speed of sound, m1 = 0.01 [m/s]	speed of sound, m1 = 0.02 [m/s]	speed of sound, m1 = 0.04 [m/s]	speed of sound, m1 = 0.06 [m/s]
293.15 K	998.731	998.986	999.492	1000.68	1001.78	1483	1483.5	1484	1485.1	1486.2
298.15 K	997.275	997.549	998.082	999.091	1000.02	1497.2	1497.6	1498	1499	1500.1
303.15 K	996.169	996.422	996.912	997.986	999.147	1509.5	1509.8	1510.3	1511.2	1512.1
308.15 K	994.279	994.556	995.092	996.095	997.015	1520.1	1520.4	1520.8	1521.6	1522.4
313.15 K	992.732	992.974	993.452	994.51	995.632	1529.1	1529.4	1529.8	1530.4	1531.2
318.15 K	990.833	990.981	991.327	992.156	992.958	1536.7	1537	1537.2	1537.8	1538.5
